Measurements: patent US9751885B2, “Cyclopropanamine compound and use thereof” (Takeda Pharmaceutical Company Limited, priority 2012, dated 2017)
Where a name gives a salt, the structure may show the parent alone.

Key:
human LSD1(172-833) = human LSD1(172-833) (Homo sapiens (Human), UniProt O60341); assay: Measurement of LSD1 inhibitory activity (time-resolved fluorescence, biotin-histone H3 mono methylated K4 peptide); format: biochemical
Description: When the turbidity reached 500 Klett units, the culture temperature was changed to 16° C., IPTG (Isopropyl β-D-1-thiogalactopyranoside) having a final concentration of 0.5 mM was added to induce expression, and the cells were cultured further for 14 hr. The culture medium was centrifuged at 6,000 g for 15 min, and Escherichia coil pellets were recovered.
Using Branson ultrasonic disintegrator, the suspension was disrupted by ultrasonication for 3 min, and centrifuged at 33,000 g for 60 min, and the supernatant was recovered. […] It was concentrated to 10 mL with AmiconUltra (NWCO 30K) (Millipore Japan), and purified with HiLoad 26/60 Superdex 200 pg column (GE Healthcare) equilibrated with Buffer A to give hLSD1 purified product (8.4 mg). The protein concentration of hLSD1 was measured by BCA Protein Assay Kit (Thermo Fisher Scientific K.K.) using bovine serum albumin as the standard.
(5) Measurement of LSD1 Inhibitory Activity
After reaction at room temperature for 5 min, 1 mM 2-PCPA solution was added 5 μL to terminate the reaction. A detection solution ([…] potassium fluoride, 0.1% BSA) containing europium-labeled anti-histone H3 antibody (Wako Pure Chemical Industries, Ltd.) and Streptavidin-XL665 (Cisbio) was further added by 5 μL, and the mixture was left standing for 60 min.

MAO-B enzyme = MAO-B enzyme (Homo sapiens (Human), UniProt P27338); assay: Measurement of MAO-B inhibitory activity (MAO-Glo Assay); conditions: read-out: MAO-B IC50 value;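 also: luminescence read-out, compound preincubated 10 min with enzyme then reacted 60 min at room temperature, inhibition relative to enzyme reaction without compound, blank lacking enzyme and compound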
Description: The MAO-B inhibitory activity evaluation described below followed the protocol of MAO-Glo (registered trademark) Assay of Promega KK.
A test compound dissolved in 4% DMSO was added by 12.5 μL to 25 μL reaction solution (100 mM HEPES (pH 7.5), 5% glycerol, 10% DMSO) containing 400 ng of MAO-B enzyme (Sigma-Aldrich Co. LLC.), and the mixture was reacted at room temperature for 10 min. […] After reaction at room temperature for 60 min, Luciferine detection reagent (Promega KK) (50 μL) was added to terminate the reaction. After reaction at room temperature for 20 min with stirring, the luminescence was measured by Envision (PerkinElmer). The MAO-B inhibitory rate (%) of the test compound was calculated by the following formula. inhibitory rate(%)=(1−(test compound count−blank)÷(control−blank))×100
The count of the MAO-B enzyme reaction mixture under compound non-addition conditions is indicated as control, and the count under compound non-addition and MAO-B enzyme non-addition conditions is indicated as blank.

MAO-A enzyme = MAO-A enzyme (Homo sapiens (Human), UniProt P21397); assay: Measurement of MAO-A inhibitory activity (MAO-Glo Assay); format: biochemical
Sequence of MAO-A enzyme (P21397 whole entry): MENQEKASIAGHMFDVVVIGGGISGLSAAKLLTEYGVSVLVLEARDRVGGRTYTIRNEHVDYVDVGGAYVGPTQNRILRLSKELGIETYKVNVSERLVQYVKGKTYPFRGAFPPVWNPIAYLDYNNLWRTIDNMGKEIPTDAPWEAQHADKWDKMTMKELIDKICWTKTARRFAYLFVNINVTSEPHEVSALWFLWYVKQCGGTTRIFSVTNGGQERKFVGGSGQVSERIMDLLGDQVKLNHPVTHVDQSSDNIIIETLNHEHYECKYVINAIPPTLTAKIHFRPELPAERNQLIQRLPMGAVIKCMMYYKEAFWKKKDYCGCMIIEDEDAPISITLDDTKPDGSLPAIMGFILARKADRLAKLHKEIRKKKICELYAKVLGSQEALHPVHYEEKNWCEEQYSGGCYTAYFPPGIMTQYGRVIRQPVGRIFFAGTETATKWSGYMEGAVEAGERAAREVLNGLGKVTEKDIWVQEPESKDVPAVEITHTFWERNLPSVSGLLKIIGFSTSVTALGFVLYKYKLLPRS

Sequence of MAO-B enzyme (P27338 whole entry): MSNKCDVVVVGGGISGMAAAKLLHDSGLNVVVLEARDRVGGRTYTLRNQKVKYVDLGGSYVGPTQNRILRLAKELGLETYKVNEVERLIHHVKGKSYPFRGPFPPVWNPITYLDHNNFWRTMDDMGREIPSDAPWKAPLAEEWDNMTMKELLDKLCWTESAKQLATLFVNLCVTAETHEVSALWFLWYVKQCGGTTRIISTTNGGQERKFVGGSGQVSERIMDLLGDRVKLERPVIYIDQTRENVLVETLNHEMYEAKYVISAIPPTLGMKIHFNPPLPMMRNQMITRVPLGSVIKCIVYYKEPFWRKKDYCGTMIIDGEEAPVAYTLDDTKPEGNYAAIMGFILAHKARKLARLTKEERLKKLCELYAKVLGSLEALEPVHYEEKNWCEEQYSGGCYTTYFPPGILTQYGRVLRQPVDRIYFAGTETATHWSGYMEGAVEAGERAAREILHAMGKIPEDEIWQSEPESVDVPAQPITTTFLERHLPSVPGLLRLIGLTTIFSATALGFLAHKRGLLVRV

Structure (SMILES)	IC50 (human LSD1(172-833))	IC50 (MAO-B enzyme)	IC50 (MAO-A enzyme)
O=C(Nc1cnn(-c2ccc(F)cc2)c1)c1cccc([C@@H]2C[C@H]2NC2CCS(=O)(=O)CC2)c1 (relative stereo) [Example 197, 3-(trans-2-((1,1-dioxidotetrahydro-2H-thiopyran-4-yl)amino)cyclopropyl)-N-(1-(4-fluorophenyl)-1H-pyrazol-4-yl)benzamide dihydrochloride]	< 0.1 µM	> 10 µM	> 10 µM
O=C(NCc1ccc(N2CCOCC2)cc1)c1ccc([C@@H]2C[C@H]2NCC2CC2)cc1 (relative stereo) [Example 28, 4-(trans-2-((cyclopropylmethyl)amino)cyclopropyl)-N-(4-(morpholin-4-yl)benzyl)benzamide bis(trifluoroacetate)]	< 0.1 µM	> 10 µM	> 10 µM
CN(C(=O)c1ccc([C@@H]2C[C@H]2N)cc1)c1ccccc1 (relative stereo) [Example 3, 4-(trans-2-aminocyclopropyl)-N-methyl-N-phenylbenzamide hydrochloride]	< 0.1 µM	> 10 µM	0.25 µM
CC(C)(C)CN[C@@H]1C[C@H]1c1cccc(C(=O)NC2CC(F)(F)C2)c1 (relative stereo) [Example 154, N-(3,3-difluorocyclobutyl)-3-(trans-2-((2,2-dimethylpropyl)amino)cyclopropyl)benzamide hydrochloride]	< 0.1 µM	> 10 µM	> 10 µM
Cc1cc(NC(=O)c2cccc([C@@H]3C[C@H]3NCC3CC3)c2)sn1 (relative stereo) [Example 152, 3-(trans-2-((cyclopropylmethyl)amino)cyclopropyl)-N-(3-methyl-1,2-thiazol-5-yl)benzamide hydrochloride]	< 0.1 µM	> 10 µM	> 10 µM
O=C(Nc1ccc(Oc2ccc(F)cc2)nc1)c1cccc([C@@H]2C[C@H]2NCC2CC2)c1 (relative stereo) [Example 137, 3-(trans-2-((cyclopropylmethyl)amino)cyclopropyl)-N-(6-(4-fluorophenoxyl)pyridin-3-yl)benzamide bis(trifluoroacetate)]	< 0.1 µM	> 10 µM	> 10 µM
CN(C(=O)c1cccc([C@@H]2C[C@H]2NCC2CC2)c1)c1ccccc1 (relative stereo) [Example 80, 3-(trans-2-((cyclopropylmethyl)amino)cyclopropyl)-N-methyl-N-phenylbenzamide hydrochloride]	< 0.1 µM	> 10 µM	0.9 µM
CCN1C(=O)COc2cc(NC(=O)c3cccc([C@@H]4C[C@H]4NCC4CC4)c3)ccc21 (relative stereo) [Example 149, 3-(trans-2-((cyclopropylmethyl)amino)cyclopropyl)-N-(4-ethyl-3-oxo-3,4-dihydro-2H-1,4-benzoxazin-7-yl)benzamide trifluoroacetate]	< 0.1 µM	> 10 µM	> 10 µM
CC(C)(C)c1ccc(CN[C@@H]2C[C@H]2c2ccc(C(=O)NCc3ccccc3)cc2)cc1 (relative stereo) [Example 31, N-benzyl-4-(trans-2-((4-tert-butylbenzyl)amino)cyclopropyl)benzamide trifluoroacetate]	< 0.1 µM	> 10 µM	4 µM
N#CCN(Cc1ccccc1)C(=O)c1ccc([C@@H]2C[C@H]2NCC2CC2)cc1 (relative stereo) [Example 22, N-benzyl-N-(cyanomethyl)-4-(trans-2-((cyclopropylmethyl)amino)cyclopropyl)benzamide trifluoroacetate]	< 0.1 µM	> 10 µM	> 10 µM
CC(C)(C)n1cc(NC(=O)c2cccc([C@@H]3C[C@H]3NCC3CCOCC3)c2)cn1 (relative stereo) [Example 89, N-(1-tert-butyl-1H-pyrazol-4-yl)-3-(trans-2-((tetrahydro-2H-pyran-4-ylmethyl)amino)cyclopropyl)benzamide dihydrochloride]	< 0.1 µM	> 10 µM	> 10 µM
Cn1cc(NC(=O)c2ccc([C@@H]3C[C@H]3N)cc2)cn1 (relative stereo) [Example 51, 4-(trans-2-aminocyclopropyl)-N-(1-methyl-1H-pyrazol-4-yl)benzamide dihydrochloride]	< 0.1 µM	> 10 µM	0.83 µM
Cc1nnc(NC(=O)c2cccc([C@@H]3C[C@H]3NCC(C)(C)C)c2)s1 (relative stereo) [Example 158, 3-(trans-2-((2,2-dimethylpropyl)amino)cyclopropyl)-N-(5-methyl-1,3,4-thiadiazol-2-yl)benzamide dihydrochloride]	< 0.1 µM	> 10 µM	> 10 µM
N[C@@H]1C[C@H]1c1ccc(C(=O)Nc2cccc(C(F)(F)F)c2)cc1 (relative stereo) [Example 4, 4-(trans-2-aminocyclopropyl)-N-(3-(trifluoromethyl)phenyl)benzamide hydrochloride]	< 0.1 µM	0.54 µM	0.19 µM
O=C(Nc1cccc(-c2ncccn2)c1)c1cccc([C@@H]2C[C@H]2NCC2CC2)c1 (relative stereo) [Example 81, 3-(trans-2-((cyclopropylmethyl)amino)cyclopropyl)-N-(3-(pyrimidin-2-yl)phenyl)benzamide dihydrochloride]	< 0.1 µM	> 10 µM	5.2 µM
Cc1ccc(CN[C@@H]2C[C@H]2c2ccc(C(=O)NCc3ccccc3)cc2)s1 (relative stereo) [Example 48, N-benzyl-4-(trans-2-(((5-methyl-2-thienyl)methyl)amino)cyclopropyl)benzamide trifluoroacetate]	< 0.1 µM	> 10 µM	2.6 µM
O=C(Nc1cccc(C(F)(F)F)c1)c1ccc([C@@H]2C[C@H]2NC2CCS(=O)(=O)CC2)cc1 (relative stereo) [Example 62, 4-(trans-2-((1,1-dioxidotetrahydro-2H-thiopyran-4-yl)amino)cyclopropyl)-N-(3-(trifluoromethyl)phenyl)benzamide hydrochloride]	< 0.1 µM	4.8 µM	> 10 µM
O=C(NCc1cccc2c1OCCO2)c1ccc([C@@H]2C[C@H]2NCC2CC2)cc1 (relative stereo) [Example 30, 4-(trans-2-((cyclopropylmethyl)amino)cyclopropyl)-N-(2,3-dihydro-1,4-benzodioxin-5-ylmethyl)benzamide trifluoroacetate]	< 0.1 µM	> 10 µM	> 10 µM
COc1ccc(CN[C@@H]2C[C@H]2c2ccc(C(=O)NCc3ccccc3)cc2)cc1 (relative stereo) [Example 35, N-benzyl-4-(trans-2-((4-methoxybenzyl)amino)cyclopropyl)benzamide trifluoroacetate]	< 0.1 µM	> 10 µM	3.1 µM
CS(=O)(=O)c1ccc(NC(=O)c2cccc([C@@H]3C[C@H]3NCC3CC3)c2)cc1 (relative stereo) [Example 124, 3-(trans-2-((cyclopropylmethyl)amino)cyclopropyl)-N-(4-(methylsulfonyl)phenyl)benzamide trifluoroacetate]	< 0.1 µM	> 10 µM	> 10 µM
CN(C)c1ccccc1CN[C@@H]1C[C@H]1c1ccc(C(=O)NCc2ccccc2)cc1 (relative stereo) [Example 42, N-benzyl-4-(trans-2-((2-(dimethylamino)benzyl)amino)cyclopropyl)benzamide bis(trifluoroacetate)]	< 0.1 µM	> 10 µM	3.4 µM
O=C(NCc1ccccc1)c1ccc([C@@H]2C[C@H]2NCc2cccs2)cc1 (relative stereo) [Example 46, N-benzyl-4-(trans-2-((2-thienylmethyl)amino)cyclopropyl)benzamide trifluoroacetate]	< 0.1 µM	> 10 µM	1.8 µM
O=C(NCc1ccncc1)c1ccc([C@@H]2C[C@H]2NCC2CC2)cc1 (relative stereo) [Example 17, 4-(trans-2-((cyclopropylmethyl)amino)cyclopropyl)-N-(pyridin-4-ylmethyl)benzamide bis(trifluoroacetate)]	< 0.1 µM	> 10 µM	> 10 µM
O=C(Nc1cnn(-c2ccc(F)cc2)c1)c1cccc([C@@H]2C[C@H]2NC2CCOCC2)c1 (relative stereo) [Example 196, N-(1-(4-fluorophenyl)-1H-pyrazol-4-yl)-3-(trans-2-(tetrahydro-2H-pyran-4-ylamino)cyclopropyl)benzamide dihydrochloride]	< 0.1 µM	> 10 µM	> 10 µM
Cc1cc(NC(=O)c2cccc([C@@H]3C[C@H]3NC3CCC(F)(F)CC3)c2)on1 (relative stereo) [Example 216, 3-(trans-2-((4,4-difluorocyclohexyl)amino)cyclopropyl)-N-(3-methyl-1,2-oxazol-5-yl)benzamide hydrochloride]	< 0.1 µM	> 10 µM	> 10 µM
